From patent US9765026B2, “Forms of apremilast and the process of making the same” (ScinoPharm Taiwan, Ltd., priority 2015, dated 2017)

Experiments:
[1] = Dynamic Vapor Sorption (DVS) analysis of moisture uptake and release; format: physicochemical; settings: for hygroscopicity (conclusion from DVS): cycling between 0% and 90% RH
Procedure: Dynamic Vapor Sorption (DVS)
The sample was placed into the DVS sample pan and dried under a stream of dry nitrogen at 25° C. (0% RH). The moisture was gradually introduced into the system with a 10% RH increment up to 90% RH and the humidity was then decreased in a similar trend for desorption phase. The sorption and desorption data were collected with equilibration set to dm/dt 0.004%/min for 5 min/step. The minimum and maximum time for each step were set to 10 and 360 min. Two sorption/desorption cycles were performed.

[2] = Stability at 40° C./75% RH; format: physicochemical; settings: 40° C./75% RH for 4 weeks
Procedure: In comparison with the form F disclosed in U.S. Pat. No. 8,093,293, Form 3 and Form 4 in the present disclosure needs less process time to be prepared and is stable even at 40° C./75% RH for 4 weeks.

weight gained ([1]; at 10% RH (FIG. 12))	hygroscopicity (conclusion from DVS) [1]	change in sample weight ([1]; humidity increased from 10% to 90% RH (FIG. 12))	stability on storage [2]	water content ([1]; RH 90% (FIG. 5B)) [%]	SMILES	maximum moisture uptake ([1]; cycling between 0% and 90% RH (FIG. 15))
about 3.3%	non-hygroscopic	no significant change	stable	–	CCOc1cc([C@@H](CS(C)(=O)=O)N2C(=O)c3cccc(NC(C)=O)c3C2=O)ccc1OC [Form 4, apremilast]	–
–	hygroscopic	–	–	4.5	CCOc1cc([C@@H](CS(C)(=O)=O)N2C(=O)c3cccc(NC(C)=O)c3C2=O)ccc1OC [Form II, apremilast]	–
–	hygroscopic	–	–	–	CCOc1cc([C@@H](CS(C)(=O)=O)N2C(=O)c3cccc(NC(C)=O)c3C2=O)ccc1OC [amorphous apremilast, apremilast]	about 2.5 % of the total mass of the sample
–	–	–	stable	–	CCOc1cc([C@@H](CS(C)(=O)=O)N2C(=O)c3cccc(NC(C)=O)c3C2=O)ccc1OC [Form 3, apremilast]	–
